Measurements: ChEMBL document CHEMBL4354783, “The calcium-dependent lipopeptide antibiotics: structure, mechanism, & medicinal chemistry” (2019)
In brackets after ≈: the same amount, converted by molar mass.

Tests used:
Staphylococcus aureus = test: Antibacterial activity against methicillin-resistant Staphylococcus aureus USA300 incubated for 18 hrs by two-fold serial dilutions method; type: functional; settings: USA300, 18 h
Enterococcus faecium = test: Antibacterial activity against vancomycin-resistant Enterococcus faecium incubated for 18 hrs by two-fold serial dilutions method; type: functional

Row | Compound | MIC (Staphylococcus aureus) | MIC (Enterococcus faecium)
1 | CCC(C)CC/C=C\C=C\C(=O)N[C@H](C(=O)N[C@@H]1C(=O)N[C@H](C(C)C)C(=O)N[C@@H](CCCCN)C(=O)N[C@@H](C(O)C(=O)O)C(=O)N[C@@H](CC(=O)O)C(=O)NCC(=O)N[C@H](C(C)C(=O)O)C(=O)N[C@@H](C(C)C)C(=O)N2C[C@H](C)C[C@H]2C(=O)NC1C)C(C)C(=O)O (some centres undefined) | 0.2 to 0.8 µg/mL (≈ 0.158 to 0.633 µM) | 0.8 to 2 µg/mL (≈ 0.633 to 1.58 µM)
2 | CC(C)CC/C=C\C=C\C(=O)N[C@H](C(=O)N[C@@H]1C(=O)N[C@H](C(C)C)C(=O)N[C@@H](CCCCN)C(=O)N[C@@H](C(O)C(=O)O)C(=O)N[C@@H](CC(=O)O)C(=O)NCC(=O)N[C@H](C(C)C(=O)O)C(=O)N[C@@H](C(C)C)C(=O)N2C[C@H](C)C[C@H]2C(=O)NC1C)C(C)C(=O)O (some centres undefined) | 0.2 to 0.8 µg/mL (≈ 0.16 to 0.64 µM) | 0.8 to 2 µg/mL (≈ 0.64 to 1.6 µM)
